Assay [1] deals with T1, human TLR7 (Homo sapiens, UniProt Q9NYK1).
T1 construct: host or cells: HEK293
T1 sequence (Q9NYK1 27-1049): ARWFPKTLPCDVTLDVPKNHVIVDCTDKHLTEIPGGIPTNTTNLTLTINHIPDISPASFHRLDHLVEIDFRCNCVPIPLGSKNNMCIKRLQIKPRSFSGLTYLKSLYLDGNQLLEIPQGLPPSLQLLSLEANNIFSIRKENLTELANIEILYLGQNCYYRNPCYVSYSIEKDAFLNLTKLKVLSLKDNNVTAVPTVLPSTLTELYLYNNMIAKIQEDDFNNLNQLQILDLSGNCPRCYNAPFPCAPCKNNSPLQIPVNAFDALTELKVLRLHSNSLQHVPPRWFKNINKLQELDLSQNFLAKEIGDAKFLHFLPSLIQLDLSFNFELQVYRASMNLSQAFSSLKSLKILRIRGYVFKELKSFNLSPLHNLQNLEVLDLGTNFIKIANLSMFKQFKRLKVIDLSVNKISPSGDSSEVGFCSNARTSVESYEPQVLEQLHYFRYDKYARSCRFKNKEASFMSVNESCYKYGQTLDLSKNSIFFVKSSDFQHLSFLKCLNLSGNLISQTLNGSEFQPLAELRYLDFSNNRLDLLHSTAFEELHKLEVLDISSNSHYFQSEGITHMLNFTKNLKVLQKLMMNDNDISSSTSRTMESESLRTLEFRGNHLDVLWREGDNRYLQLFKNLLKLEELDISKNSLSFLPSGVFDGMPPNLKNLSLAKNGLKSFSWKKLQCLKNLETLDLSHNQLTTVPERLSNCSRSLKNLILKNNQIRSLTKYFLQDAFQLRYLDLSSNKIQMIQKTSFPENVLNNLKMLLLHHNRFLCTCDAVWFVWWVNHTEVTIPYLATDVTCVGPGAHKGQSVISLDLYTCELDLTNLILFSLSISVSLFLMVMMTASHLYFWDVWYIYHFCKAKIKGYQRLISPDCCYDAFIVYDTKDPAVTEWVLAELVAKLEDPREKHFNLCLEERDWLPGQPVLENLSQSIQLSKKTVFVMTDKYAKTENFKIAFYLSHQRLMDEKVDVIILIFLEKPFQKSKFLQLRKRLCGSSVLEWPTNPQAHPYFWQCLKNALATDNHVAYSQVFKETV
The assay is described as follows: HEK293 SEAP reporter assay, TLR panel (Example 10). Format: cell-based. To be noted: 16 hrs. An excerpt: In this example, the activity of the compound 10 to stimulate different human and mouse TLR pathways was investigated on HEK293 cells transfected with inducible SEAP (secreted embryonic alkaline phosphatase) reporter genes and also expressing different human TLRs (TLR2, TLR3, TLR4, TLR5, TLR7, TLR8, TLR9) or mouse TLRs (TLR2, TLR3, TLR4, TLR5, TLR7, TLR8, TLR13).
HEK293 reporter cell lines were purchased from Invivogen and cell lines were maintained in manufacture recommended culture medium with required supplemental antibiotics. On the day of assay, the cells were harvested with Accutase and counted by the Vi-CELL Cell Viability Analyzers. Cells were resuspended in HEK blue detection medium and a total of 10000 cells were seeded in each well of a 384-well flat bottom plate. Serial dilutions of compound 10 and compound 1 was added into treatment wells. Assay plates were cultured at 37° C. in a CO2 incubator for 16 hrs. HEK-Blue™ Detection medium changes to a purple/blue color in the presence of secreted SEAP, which can be detected by spectrophotometry at 620-655 nm. Data was fitted with non-linear regression analysis, using a log(inhibitor) vs. response-variable slope, 3-parameter fit with GraphPad Prism.

Assay [2] relates to MC38-hFolRα tumors. The assay is described as follows: Anti-tumor activity in mice bearing established MC38-hFolRα tumors. It counts as in vivo, mouse. Conditions: Day 0 and 4; for tumor growth inhibition (TGI): compared to vehicle control on day 10, p<0.0001. An excerpt: This example evaluates the response of MC38-hFolRα tumors to treatment with Compound 2, a TLR 7 agonist.
Female C57BL/6 mice at 9-10 weeks of age were anesthetized with isoflurane and implanted subcutaneously into the right hind flank with 1×10^6 MC38-hFolRα (murine colon adenocarcinoma cells engineered to express hFolRα). Randomization and start of treatment was initiated when the average tumor size was approximately 150 mm^3 (designated as Day 0 post-treatment). Animals received intratumoral (IT) injections of Compound 2 on Day 0 and Day 4 (q4d×2). Compound 2 was dissolved in DMSO and dosing solutions were formulated in PBS. Body weight and tumor size were monitored 3×/week. The primary study endpoint was reached when the mean tumor size of the vehicle control group was >1,200 mm^3.

Assay [3] deals with human PBMCs. The assay is described as follows: Cytokine release (ELISA). It counts as cell-based. To be noted: 24 hr, 10 μg/mL LPS-RS. The protocol: (§1) This example evaluates the ability of Compound 10 to induce cytokine release in human PBMCs, cyno PBMCs and mouse splenocytes. Compound 1 and resiquimod:
(§2) Human and cyno PBMCs, mouse splenocytes were isolated as described in previous example. The day of the assay, 300 k of PBMC or splenocytes in 50 μL of culture medium were seeded in 96-well cell culture plates. 50 μl of the test articles (formulated at 2× of starting concentration) were then added into the well. The cell mixtures were co-cultured in the presence of test articles and 10 μg/mL LPS-RS for 24 hr (human PBMCs) or 48 hr (cyno PBMCs and mouse splenocytes). Cytokines released were measured by ELISA using cell culture medium.

In assay [4] the test system is mouse splenocytes. The assay is described as follows: Cytokine release (ELISA). Conditions: 48 hr, 10 μg/mL LPS-RS. It counts as cell-based. Here is the method: as §1, §2

Molecules are shown by their SMILES.

`CCCCCNc1nc(N)nc2ccn(Cc3ccc(CN4CCNCC4)cc3OC)c12` [Compound 1, 5-(2-methoxy-4-(piperazin-1-ylmethyl)benzyl)-N4-pentyl-5H-pyrrolo[3,2-d]pyrimidine-2,4-diamine, reference compound] gave an EC50 in assay [1] of 2.17 nM.

Regarding `CCCCCNc1nc(N)nc2ccn(Cc3ccc(CN4CC(NC)C4)cc3OC)c12` [Compound 2, 5-(2-methoxy-4-((3-(methylamino)azetidin-1-yl)methyl)benzyl)-N4-pentyl-5H-pyrrolo[3,2-d]pyrimidine-2,4-diamine], the “tumor growth inhibition (TGI)” value in assay [2] (0.1 mg/kg intratumoral) is 55%; in assay [2] (0.5 mg/kg intratumoral), 61%; in assay [2] (2 mg/kg intratumoral) it was 80%. Besides, the “MC38-hFolRα tumor growth delay” value in assay [2] (0.1-2 mg/kg intratumoral) is “significantly delayed”.

The compound `CCCCCNc1nc(N)nc2ccn(Cc3ccc(CN4CC5(CNCCO5)C4)cc3OC)c12` [Compound 10, 5-[[2-methoxy-4-(5-oxa-2,8-diazaspiro[3.5]nonan-2-ylmethyl)phenyl]methyl]-N4-pentyl-pyrrolo[3,2-d]pyrimidine-2,4-diamine] returned an EC50 in assay [1] of 11 nM. In addition, the IL-6 release entry in assay [3] (FIG. 4A) and in assay [4] (FIG. 6A) was “strong” each time. The MCP-1 release result in assay [3] (FIG. 4B) and in assay [4] (FIG. 6B) was “strong” each time. The IL1Ra release result in assay [3] (FIG. 4C) is on record as “strong”. For the same compound, the TNFa release entry in assay [4] (FIG. 6C) was “strong”. In assay [4] (FIG. 6D), the IP-10 release entry is “strong”.

The values are drawn from US12534465B2, “5H-pyrrolo[3,2-d]pyrimidine-2,4-diamino compounds and antibody conjugates thereof” (SUTRO BIOPHARMA, INC., priority 2019, dated 2026).
